Literature values, collected in patent EP0214616A2, “Acetylenic prostaglandins” (G.D. Searle & Co., priority 1985, dated 1987).

Test system: gastric secretion
Conditions: at the highest dose tested (100ug/kg)

Question: With `CCCCC(C)(O)C/C=C/[C@H]1[C@H](O)CC(=O)[C@@H]1CCC#CCCC(=O)OC` (mixture of isomers) [Example C90001] as the molecule, how does the gastric antisecretory activity read?
Answer: The gastric antisecretory activity was “devoid of gastric antisecretory activity”.
